Test results reported in the NIST ThermoML archive (doi:10.1021/je900615b).
Numbers after ± are expanded uncertainties.

Conditions: Liquid, Hot wire method

CCOCC [diethyl ether]
Conditions	thermal conductivity [W/m/K]
234.64 K, 100 kPa	0.1453 ± 0.003
234.88 K, 20100 kPa	0.1543 ± 0.0031
234.9 K, 30300 kPa	0.1565 ± 0.0032
234.92 K, 20100 kPa	0.1542 ± 0.0031
235.03 K, 100 kPa	0.1461 ± 0.003
235.09 K, 20200 kPa	0.1538 ± 0.0031
235.1 K, 10100 kPa	0.1496 ± 0.0031
235.17 K, 5100 kPa	0.1478 ± 0.003
235.22 K, 30200 kPa	0.1563 ± 0.0032
235.4 K, 30400 kPa	0.1559 ± 0.0032
235.48 K, 10100 kPa	0.1499 ± 0.0031
235.53 K, 5100 kPa	0.1479 ± 0.003
235.89 K, 10100 kPa	0.15 ± 0.0031
235.93 K, 5100 kPa	0.1477 ± 0.003
235.94 K, 100 kPa	0.1456 ± 0.003
254.64 K, 20200 kPa	0.1484 ± 0.003
254.74 K, 30000 kPa	0.1514 ± 0.0031
254.75 K, 5200 kPa	0.1408 ± 0.0029
254.86 K, 30000 kPa	0.1512 ± 0.0031
254.91 K, 19700 kPa	0.1477 ± 0.003
254.95 K, 100 kPa	0.1386 ± 0.0028
254.98 K, 10100 kPa	0.1427 ± 0.0029
254.99 K, 4900 kPa	0.1411 ± 0.0029
255.26 K, 100 kPa	0.1386 ± 0.0028
255.28 K, 29900 kPa	0.1512 ± 0.0031
255.34 K, 20200 kPa	0.1475 ± 0.003
255.37 K, 5100 kPa	0.1407 ± 0.0029
255.38 K, 10200 kPa	0.1432 ± 0.003
255.69 K, 10000 kPa	0.1427 ± 0.003
255.7 K, 100 kPa	0.1386 ± 0.0028
274.69 K, 100 kPa	0.1315 ± 0.0027
274.7 K, 20100 kPa	0.1409 ± 0.0029
274.71 K, 5000 kPa	0.1338 ± 0.0027
274.71 K, 10000 kPa	0.1363 ± 0.0028
274.92 K, 30000 kPa	0.1447 ± 0.003
274.93 K, 20000 kPa	0.1409 ± 0.0029
274.96 K, 100 kPa	0.1319 ± 0.0027
274.97 K, 10000 kPa	0.1362 ± 0.0028
275.21 K, 30000 kPa	0.145 ± 0.003
275.37 K, 100 kPa	0.1317 ± 0.0027
275.38 K, 5000 kPa	0.1339 ± 0.0027
275.56 K, 10100 kPa	0.1364 ± 0.0028
275.64 K, 30000 kPa	0.145 ± 0.003
275.7 K, 20000 kPa	0.1407 ± 0.0029
275.79 K, 5000 kPa	0.134 ± 0.0027
294.61 K, 20200 kPa	0.1366 ± 0.0029
294.79 K, 10100 kPa	0.1311 ± 0.0027
294.81 K, 5100 kPa	0.128 ± 0.0026
294.83 K, 29900 kPa	0.1419 ± 0.0029
294.93 K, 20000 kPa	0.1366 ± 0.0028
295.04 K, 5000 kPa	0.128 ± 0.0026
295.06 K, 10100 kPa	0.1309 ± 0.0027
295.08 K, 29700 kPa	0.1416 ± 0.003
295.25 K, 20000 kPa	0.1365 ± 0.0028
295.26 K, 10000 kPa	0.1308 ± 0.0027
295.31 K, 100 kPa	0.1248 ± 0.0026
295.43 K, 5100 kPa	0.1277 ± 0.0026
295.53 K, 29900 kPa	0.1419 ± 0.0029
295.6 K, 100 kPa	0.1252 ± 0.0026
296.02 K, 100 kPa	0.125 ± 0.0026
